Assay results taken from PubChem BioAssay (NCI).
“And” between values parts separate entries of the source, which are not always exact repeats. Equal values may be shown once.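 Five compound concentrations were applied to cells in 96-well plates for 48 hours; endpoints were derived by simple linear interpolation of the resulting dose-response curve. At the GI50, growth is halved. TGI denotes the concentration required for complete inhibition of growth.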

Tests used:
Experiment in all cases: growth of human tumour cells (NCI), 48 h
CAKI-1 renal = tested on: CAKI-1 renal
HCC-2998 colon = tested on: HCC-2998 colon
K-562 leukemia = tested on: K-562 leukemia
LOX IMVI melanoma = tested on: LOX IMVI melanoma
M14 melanoma = tested on: M14 melanoma
NCI-H226 lung = tested on: NCI-H226 lung
SF-295 CNS = tested on: SF-295 CNS
SF-539 CNS = tested on: SF-539 CNS
T-47D breast = tested on: T-47D breast
UO-31 renal = tested on: UO-31 renal
RPMI-8226 leukemia = tested on: RPMI-8226 leukemia

Compound | TGI (CAKI-1 renal) | TGI (HCC-2998 colon) | TGI (K-562 leukemia) | TGI (LOX IMVI melanoma) | TGI (M14 melanoma) | TGI (NCI-H226 lung) | TGI (SF-295 CNS) | TGI (SF-539 CNS) | TGI (T-47D breast) | TGI (UO-31 renal) | TGI (RPMI-8226 leukemia) | GI50 (CAKI-1 renal) | GI50 (LOX IMVI melanoma) | GI50 (NCI-H226 lung) | GI50 (SF-295 CNS) | GI50 (T-47D breast) | GI50 (UO-31 renal) | GI50 (HCC-2998 colon)
CC(=O)c1ccc(N=NN2CCCC2)cc1 | > 100 µM | > 100 µM | > 100 µM | > 100 µM | > 100 µM | > 100 µM | > 100 µM | > 100 µM | > 100 µM | > 100 µM | – | – | – | – | – | – | – | –
CSC(=O)/C=C1\SS/C(=C\C(=O)SC)S1 | 4.25 µM | 3.33 µM | > 100 µM | 3.09 µM | 5.24 µM | 3.41 µM | 13.7 µM | 6.93 µM | 20.6 µM | 6.89 µM | 5.27 µM | – | – | – | – | – | – | –
COC(=O)[C@@H]1[C@@H]2NC(=S)N[C@@]1(C)Oc1ccccc12 | > 100 µM | > 100 µM | > 100 µM | > 100 µM | > 100 µM | > 100 µM | > 100 µM | > 100 µM | > 100 µM | > 100 µM | > 100 µM | – | – | – | – | – | – | –
C=C1CC[C@@H](CCC2CCC3(OC2)O[C@]2(O)CC[C@@]3(C)OC2(C)C)C(C)(C)[C@H]1C/C=C1\CCOC1=O (stereo partly specified) | > 88.1 µM | > 53.3 µM | 26.5 µM | 20 µM | > 100 µM | 35.2 µM | – | > 32.4 µM | 90.3 µM | > 100 µM | 31.2 µM | – | – | – | – | – | – | –
O=C(CCc1cc(O)cc(O)c1)NCCc1cc(O)cc(OCc2ccccc2)c1 | > 100 µM | 39.1 µM | 96.3 µM | > 100 µM | > 100 µM | > 100 µM | > 100 µM | > 100 µM | > 100 µM | > 100 µM | 90.5 µM | – | – | – | – | – | – | –
NCCOc1cccc(C2(N3CCCCC3)CCCCC2)c1 | > 100 µM | 37.5 µM | 35.1 µM | 28.9 µM | 30.2 µM | > 100 µM | 77.1 µM | 32.3 µM | > 100 µM | 28.2 µM | 48.4 µM | – | – | – | – | – | – | –
CC(=O)c1ccc(Nc2c3c(nc4ccccc24)CCCC3)cc1 | > 44 µM | > 100 µM | > 100 µM | > 41.4 µM | 41.7 µM | > 100 µM | > 43.2 µM | > 100 µM | > 52.2 µM | > 67.1 µM | > 100 µM | – | – | – | – | – | – | –
O=[N+]([O-])c1cccc2nc3ccccc3c(NCCCCCNc3c4ccccc4nc4cccc([N+](=O)[O-])c34)c12 | 0.278 µM and 0.0712 µM | 0.103 µM and 0.04 µM | 0.678 µM | – | 0.198 µM and 0.024 µM | 0.562 µM and 1.94 µM | 0.905 µM and 1.13 µM | 0.135 µM and 0.0297 µM | 0.837 µM and 2.24 µM | 0.406 µM and 0.0604 µM | 0.637 µM | 0.0199 µM | 0.0746 µM | 0.0249 µM | 0.0226 µM | 0.121 µM | 0.0192 µM | –
COc1cc2nc(Cl)nc(NS(=O)(=O)c3cc4ccccc4s3)c2cc1OC | > 100 µM | 39.3 µM | 52.6 µM | 59.5 µM | 85 µM | > 100 µM | > 100 µM | > 100 µM | 56.7 µM | 33.3 µM | 44.9 µM | – | – | – | – | – | – | –
CC1=NN(c2nc(N)nc(C(C)Cl)n2)C(C)(C)C1 (stereo unspecified) | > 100 µM | > 100 µM | > 100 µM | > 100 µM | > 100 µM | > 100 µM | > 100 µM | > 100 µM | > 100 µM | > 100 µM | > 100 µM | – | – | – | – | – | – | –
N#Cc1ccccc1OCCOc1ccccc1C#N | > 100 µM | > 100 µM | > 100 µM | > 100 µM | > 100 µM | > 100 µM | > 100 µM | > 100 µM | > 100 µM | > 100 µM | > 100 µM | – | – | – | – | – | – | –
CCN(CC)CCNc1ccc([N+](=O)[O-])c2nc3ccc(OC)cc3c(NCCN(CC)CC)c12 | 8.6 µM | 2.01 µM | 1.38 µM | 2.43 µM | > 5.3 µM | 3.8 µM | 2.6 µM | 2.43 µM | > 10 µM | 3.71 µM | > 4.4 µM | – | – | – | – | – | – | –
S=C1Cc2c(-c3ccccc3)cc(-c3cccc(Cl)c3)nc2-c2ccccc2N1 | 9.23 µM | 18.7 µM | > 100 µM | 13.7 µM | > 49.7 µM | 19.4 µM | 17.2 µM | 8.54 µM | 21.6 µM | 16.9 µM | 56.2 µM | – | – | – | – | – | – | –
[B]C(=O)NC(CC(C)C)C(=O)NCC(=O)NC1c2ccsc2C(=O)C1O (stereo unspecified) (tested in a mixture with another compound) | > 100 µM | > 100 µM | > 31.6 µM | > 100 µM | > 100 µM | > 100 µM | > 100 µM | > 100 µM | > 100 µM | > 100 µM | > 100 µM | – | – | – | – | – | – | –
COC(CN(C)C(=S)Nc1cccc2ccccc12)OC | > 10 µM | > 10 µM | > 10 µM | > 10 µM | > 10 µM | > 10 µM | > 10 µM | > 10 µM | > 10 µM | > 10 µM | > 10 µM | – | – | – | – | – | – | –
CN(NC1=NCCO1)c1ccc2ccccc2c1 | > 100 µM | 99.4 µM | 66.1 µM | > 100 µM | > 100 µM | > 100 µM | > 100 µM | 82.6 µM | > 100 µM | > 100 µM | > 100 µM | – | – | – | – | – | – | –
COC(=O)/C=C(\C(=O)OC)c1cc(C)c2cc(C(C)C)ccc(C)c1-2 | > 100 µM | 87.5 µM | > 100 µM | > 100 µM | > 100 µM | > 100 µM | > 100 µM | > 100 µM | > 100 µM | > 100 µM | > 100 µM | – | – | – | – | – | – | –
Clc1ccc(C=Nc2ccc(Oc3ccc(Cl)cc3)c(Cl)c2)cc1 | 86.2 µM | 45.6 µM | – | 39.1 µM | 46.9 µM | > 100 µM | 37.7 µM | 35.4 µM | 89.8 µM | 24.8 µM | > 100 µM | – | – | – | – | – | – | –
O=C1CC(c2cccc(Cl)c2)Nc2ccc(N3CCCC3)cc21 (stereo unspecified) | > 100 µM | 0.0611 µM | 0.017 µM | > 100 µM | > 100 µM | 0.606 µM and 0.338 µM | > 100 µM | – | > 100 µM | 50.7 µM | 0.0171 µM | – | – | – | – | – | – | 0.0148 µM
COC(=O)/C=C/c1ccc(OP(=O)(O)O)c(OC)c1 | > 100 µM | > 100 µM | – | > 100 µM | > 100 µM | > 100 µM | > 100 µM | > 100 µM | > 100 µM | > 100 µM | > 100 µM | – | – | – | – | – | – | –
